# Source: patent publication US9220746B2, “Compounds and methods for treating bone disorders and controlling weight” (The University of North Carolina at Chapel Hill, priority 2009, dated 2015)
# Key:
# adherent macrophages = assay: Osteoclast differentiation, tartrate resistant acid phosphatase staining; assay type: cell-based, mouse; conditions: for osteoclast differentiation: macrophages of IGFBP-2 gene deleted Balb/c mice, mCSF, RANK ligand, TRAP stain day 7
# From the text: The method for osteoclast differentiation is as follows: Balb/c mice in which the IGFBP-2 gene had been deleted (see V. DeMambro et al, Endocrinology, 149(5): 2051-2061 (2007)) were anesthetized and sacrificed using cervical dislocation. The femurs from each mouse were dissected free of soft tissue and the bone marrow aspirated by needle puncture. Cells were removed sterile and resuspended in DMEM with 10% fetal calf serum. The cells were centrifuged at 700×g and the cell pellet resuspended in medium and plated in 24 well plates at a concentration of 5000 cells/cm^2. The plates that are used are low adherence plates that have no additives to facilitate cell adherence. Under these conditions macrophages will adhere while other cells will not. The media is supplemented with mCSF 20 ng/ml. After 3 days the cells are removed from the plate and the adherent macrophages are exposed to fresh media containing 10% FBS and mCSF. This is repeated again after 3 days and then after an additional 3 days cells are trypsinized and replated in fresh plates at 6×10^4 cells/cm. At this time RANK ligand, 50 ng/ml, is added, although in some experiments concentrations as low as 10 ng/ml were utilized. Medium is changed at 3 and 6 days and on day 7 cells are stained for tartrate resistant acid phosphatase, a marker of osteoclast differentiation. IGFBP-2 was added at concentrations between 50 ng/ml and 500 mcg/ml. The peptide was added at 20 or 200 ng/ml.
# For tartrate resistant acid phosphatase staining, a 1% solution is prepared and incubated with the cells for 30 min at room temperature. Cultures are then washed and cell number determined by manual counting.
# [1] = test system: primary mouse preadipocytes; assay: Differentiation of primary mouse preadipocytes, oil red O staining; assay type: cell-based; conditions: peptide 2 ng to 2 ug/ml
# Method: The maximum effect of the peptide was to inhibit differentiation to a level wherein <20% of the cells were positive. These findings were reconfirmed using primary mouse preadipocytes. 35-50 day old mice were killed and inguinal fat pads were removed aseptically. Fat tissue was washed and dissolved in Hanks basic salt solution containing 0.1% glucose and 2 mg/ml collagenase, (type 3 Worthington) and 4% BSA. Following 15 min digestion at 37°, the tissue was separated by dispersion and pipetting and then filtered through an 80 micron sterile nylon filter. The cells were then plated in DMEM F12 containing 10% fetal calf serum and then centrifuged at 700×g to separate the stromal vascular cells from the adipocytes, which float. The supernatant was discarded and the cell pellet which contained the stromal vascular cells was resuspended in DMEM F12 with 10% FCS and plated at a density of 15,000 cells/cm^2. The medium was aspirated 24 hr later and fresh medium was replaced every 3 days until the cells reached 80-90% confluence. Differentiation was induced by adding serum free medium containing 25 mM glucose, 10 ug/ml transferin, 10 nM T3, 10-7 dexamethasone, 5 ug/ml HDL and 16.7 nM insulin. This was added to cultures that were between […]. […] The IGFBP-2 had been purified from cellular conditioned medium and was determined to be homogenous by amino acid sequence analysis.
# metacarpals = assay: Metacarpal culture ex vivo (calcein incorporated area, length, width); assay type: cell-based, mouse; conditions: 10 days, IGFBP2 200 ng/ml, peptides 2 μg/ml, vs PBS
# Method: FIG. 2. The heparin binding domain of IGFBP2 enhances periosteal expansion of metacarpals ex vivo. Metacarpals were collected from day 1 male mouse, and treated with osteogenic media with IGFBP2 (200 ng/ml) or the heparin-binding domain peptide (HBD-peptide) (2 μg/ml) in the presence or absence of IGF-1 (20 ng/ml) for 10 days. Bones were labeled with calcein (500 ng/ml) and calcein incorporated area was visualized (a) and longitudinal length of calcein incorporated area was quantified (b). Alcian blue and Von Kossa double staining was performed (c) and length and width of metacarpals were quantified (d). Statistical difference was analyzed by ANOVA followed by Bonferroni post-hoc test. Figures shown represent at least 3 independent experiments. Values are expressed as the mean±SEM (n=3-4). ^a; <0.05 vs PBS, ^b; <0.01 vs PBS, ^c; <0.001 vs PBS, ^d; <0.01 vs HBD, ^e; <0.05 vs IGF-I, ^f; <0.05 vs HBD.
# Metacarpals were isolated from Igfbp2^−/− mice at 1-day old and incubated in DMEM containing 0.5% BSA, 50 μg/ml ascorbic acid and 1 mM β-glycerol phosphate for 10 days^54. Stimulants were added to culture media from day 1. At day 10, metacarpals were incubated in media containing calcein (500 ng/ml) for 2 hours for staining of calcium deposition, and images were obtained. Then, bones were fixed with 4% PFA, embedded in paraffin, and processed for Alcian blue and von Kossa double staining.
Molecule,serum concentration at which osteoclast differentiation was still detected in the presence of the peptide (adherent macrophages) [%],osteoclast differentiation (adherent macrophages),inhibition of adipocyte differentiation [1],calcein incorporated area of metacarpals (metacarpals; IGF-1 20 ng/ml),width (and length) of metacarpals (metacarpals)
KHHLGLEEPKKLR (IGFBP-2 heparin binding domain-containing peptide sequence) [peptide of SEQ ID NO:1],0.5,would not differentiate into osteoclasts without addition,reconfirmed,,
"IGFBP-2: Insulin-like growth factor binding protein-2, 36,000 dalton protein, purified from cellular conditioned medium (protein, UniProt P18065 36-325, looked up) Insulin-like growth …: AEVLFRCPPCTPERLAACGPPPVAPPAAVAAVAGGARMPCAELVREPGCGCCSVCARLEGEACGVYTPRCGQGLRCYPHPGSELPLQALVMGEGTCEKRRDAEYGASPEQVADNGDDHSEGGLVENHVDSTMNMLGGGGSAGRKPLKSGMKELAVFREKVTEQHRQMGKGGKHHLGLEEPKKLRPPPARTPCQQELDQVLERISTMRLPDERGPLEHLYSLHIPNCDKHGLYNLKQCKMSLNGQRGECWCVNPNTGKLIQGAPTIRGDPECHLFYNEQQEARGVHTQRMQ",,would not differentiate into osteoclasts without addition,,significantly enhanced,increased the width of metacarpals
